The assay has as its target T1, Hup (histone-like DNA-binding protein of H. pylori) (Helicobacter pylori, UniProt O25506).
T1 sequence (O25506 1-94): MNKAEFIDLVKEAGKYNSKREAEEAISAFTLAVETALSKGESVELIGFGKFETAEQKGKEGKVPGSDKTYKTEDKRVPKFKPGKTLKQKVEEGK
As to the kind of experiment: ligand-observed 1H NMR titration.

The Kd is the free concentration of one partner at which half of the binding sites on the other are occupied at equilibrium, for simple one-to-one binding. Turning to `O=C(O[C@@H]1Cc2c(O)cc(O)cc2O[C@@H]1c1cc(O)c(O)c(O)c1)c1cc(O)c(O)c(O)c1` [EGCG], binding was characterised by a dissociation constant (Kd) of 3.29 ± 0.42 µM.

The values above are taken from PMC7876696 (ACS Omega, 2021).
